Measured values reported in patent US5886142A, “Radiolabeled thrombus imaging agents” (Thomas Jefferson University, priority 1997, dated 1999).
Positions of bridges follow the written chain, without caps; N, C: chain ends. Non-standard residues stand in square brackets, D forms with d. No end group written: not given here. *: point of attachment. GABA = NCCCC(=O)O; Acm = CC(=O)NC*

Legend:
[1] = tested on: thrombus in femoral artery; test: Gamma camera imaging of experimental arterial thrombus in vivo; parameters: species or system New Zealand white albino rabbit; conditions: rabbit, intravenous, gamma camera image 15 minutes after administration (FIG. 6)
Source text: An experimental clot was induced in a femoral artery of a rabbit and imaged by scintigraphy.
A New Zealand white albino rabbit (3.5 kg) was anesthetized with a mixture of ketamine/zylaxine and placed in the supine position on an x-ray table. The animal was not heparinized. A small incision was made in the neck to expose the right carotid artery; a catheter inserted and with the assistance of a guidewire and a fluoroscope, the catheter was advanced in the left femoral artery. […] The puncture was confirmed when contrast agent was injected. A 3 mm×2 cm thrombogenic coil (Cooks Inc., Bloomington, Ind.) was placed in the catheter, and with the help of the guidewire was lodged in the left femoral artery above the hip joint, near the bladder (FIG. 5B).
Approximately 25 minutes after the insertion of the catheter and coil, 2.4 μCi (10 μg) of the thrombus imaging agent was injected intravenously into the animal and serial gamma camera images were obtained.

resting platelets = test: Binding of thrombus imaging agent to resting platelets; parameters: species or system human; conditions: absent thrombin, 22° C., 15 minutes
Procedure: A thrombus imaging agent, i.e., the composition of SEQ ID NO: 7 labeled with Tc-99m, was assayed for its ability to bind to resting and activated platelets. Again, the platelets used in this assay were obtained from healthy volunteers. Platelets (0.5 ml; 0.7×10^9 platelets), which were stored for up to four days and 20 μl of the thrombus imaging agent (~1.9×10^-3 μg) were dispensed into each of six test tubes. To activate the platelets, 6 i.u. of thrombin was added to three of the tubes and gently mixed until a visible clot was formed. The remaining three tubes (absent thrombin) served as controls (i.e., resting platelets). The tubes were held at 22° C. for 15 minutes and then centrifuged at 2000 g for 10 minutes. The supernatant was separated and the platelets washed with 0.9% NaCl and centrifuged again at 2000 g for 10 minutes. Radioactivity in the supernatant and washings combined, and that associated with the platelet samples, was counted and the percentage of radiolabeled platelets in each tube was determined.

[2] = In vitro stability of the thrombus imaging agent by periodic HPLC; format: physicochemical; conditions: up to 18 hours after preparation
Procedure: The purity of the product was examined by HPLC (Rainin, Emeryville, Calif.) using a reverse phase C-18 column and gradient solvents of 0.1% TFA in water (solvent A) and 0.1% TFA in acetonitrile (solvent B). The gradient was such that at zero minutes, solvent A was 30%, reaching to […] 100% in 30 minutes. The flow rate was 1 ml/minute. The HPLC was equipped with a u.v. detector set at 278 nm, a 2" NaI (Tl) gamma counter and a rate meter. The radiolabeled composition (SEQ ID NO: 7), the thrombus imaging agent, was eluted at retention time 9.3 minutes, and the unbounded technetium at 3.7 minutes.
The in vitro stability of the thrombus imaging agent was examined for up to 18 hours after preparation.

activated platelets = test: Binding of Tc-99m labeled peptide to activated platelets; parameters: species or system human; conditions: 6 i.u. thrombin, 22° C., 15 minutes
Procedure: The labeled cyclized peptide was then assayed for its ability to bind to resting and activated platelets. The platelets used in this assay were obtained from healthy human volunteers. Platelets (0.5 ml; 0.7×10^9 platelets), which were stored in a salt balanced medium for up to four days and 20 μl of the technetium labeled cyclized peptide (approximately 1.9×10^-3 mg) were dispensed into each of six test tubes. To activate the platelets, 6 i.u. of thrombin was added to three of the tubes and gently mixed until a visible clot was formed. The remaining three tubes (absent thrombin) served as controls, i.e., resting platelets. The tubes were held at 22° C. for 15 minutes and then centrifuged at 2000 g for 10 minutes. The supernatant was separated and the platelets washed with 0.9% NaCl and centrifuged again at 2000 g for 10 minutes. Radioactivity in the supernatant and washings combined, and that associated with the platelet samples, was counted and the percentage of radiolabeled platelets in each tube was determined. […]
A thrombus imaging agent, i.e., the composition of SEQ ID NO: 7 labeled with Tc-99m, was assayed for its ability to bind to resting and activated platelets. […] Radioactivity in the supernatant and washings combined, and that associated with the platelet samples, was counted and the percentage of radiolabeled platelets in each tube was determined.

forming clots = test: Binding to forming human blood clots in vitro
Procedure: In several 1 ml syringes, approximately 0.7 ml of blood was drawn, without any anti-coagulant, from a healthy human volunteer. In four of the syringes, approximately 2 μCi of the thrombus imaging agent was added and mixed, and followed by the addition of 15 i.u. units of thrombin and mixed again. […] The fluid was expelled and reserved, and the clots were washed with 0.9% NaCl. The wash was combined with the reserved expelled fluid. The clots, still in the syringe, were placed over a gamma camera (GE 300 STARCAM) and imaged for a combined total count of 35,000. The forming clots were expelled from the syringes, collected in four separate test tubes, and placed in a gamma counter (Packard 5000 series) together with the previously reserved expelled liquid for each respective sample. The percentage of radioactivity associated with each clot was determined.
Images of these (broken) clots are shown in FIG. 4C, in which 51±1.2% of the added radiolabel was taken up. The increasing uptake of the thrombus imaging agent over a prolonged period of time in a forming clot in vitro is analogous to the situation in patients in whom clots continue to form slowly for a long period of time.

[3] = parameters: species or system New Zealand white rabbit; conditions: rabbit, in vivo, iv
Procedure: Alternatively, the stability of the thrombus imaging agent was determined by comparing an HPLC elution plot of the radiolabeled composition (SEQ ID NO: 7) and of the radioactivity excreted in the urine of the rabbit given the thrombus imaging agent four hours previously. For the in vivo analysis, a preparation containing the radiolabeled composition (SEQ ID NO: 7) was injected intravenously into a New Zealand white rabbit. Urine was collected from the rabbit at four hours post-injection and a 20 μl portion of which was analyzed by HPLC as described above. The animal had not voided prior to collection of this sample.

pre-formed clots = test: Binding to pre-formed human blood clots in vitro; conditions: thrombin 15 minutes prior to addition of the agent
Procedure: In several 1 ml syringes, approximately 0.7 ml of blood was drawn, without any anti-coagulant, from a healthy human volunteer. In four of the syringes, approximately 2 μCi of the thrombus imaging agent was added and mixed, and followed by the addition of 15 i.u. units of thrombin and mixed again. Clots were allowed to form for 15 minutes at 22° C. The fluid was expelled and reserved, and the clots were washed with 0.9% NaCl. The wash was combined with the reserved expelled fluid. The clots, still in the syringe, were placed over a gamma camera (GE 300 STARCAM) and imaged for a combined total count of 35,000. The forming clots were expelled from the syringes, collected in four separate test tubes, and placed in a gamma counter (Packard 5000 series) together with the previously reserved expelled liquid for each respective sample. The percentage of radioactivity associated with each clot was determined.
In the four remaining test tubes, thrombin was added and allowed to incubate for 15 minutes, prior to the addition of the thrombus imaging agent. The pre-formed clots were treated as described above and measured for radioactivity

MDA-231 cells = test: Cell adhesion assay (method of Tuszynski et al.); format: cell-based; conditions: not radiolabeled; peptide dried in microtiter wells, one hour incubation
Procedure: Using the method of Tuszynski et al. J. Cell Biol. 1992, 116, 209-221, the hexapeptide Cys Ser Val Thr Cys Gly (SEQ ID NO: 4) and fibrinectin were used as controls, and the composition of SEQ ID NO: 7, as a test peptide. None of the peptides or fibrinectin were radiolabeled. Fifty μl of a […] saline solution of the peptide or protein was air dried overnight in wells of a microtiter plate. After drying, the wells were blocked with 50 μl of BSA for 30 minutes and washed with Hepes-bufferedsaline. The wells were incubated for one hour with a titer of 3.3×10^4 MDA-231 cells in 100 μl of Hepes-buffered saline containing 5 mM glucose, 1 mM MgCl2 and 1 mM CaCl2. The wells were washed once with PBS and adherent cells were fixed with 3% glutaraldehyde and stained with Giemsa overnight. The total number of adherent cells were counted under light microscopy.

[4] = tested on: CD36 transfected Jurkat cells; conditions: radioiodinated (I-125); cited from earlier work
platelets = conditions: cited from earlier work
four tumor cell lines = conditions: cited from earlier work

In the case of “thrombus imaging agent: the composition of SEQ ID NO: 7 labeled with Tc-99m (G[dA]GG[GABA]YC(Acm)SVTC(Acm)G; also: Tc-99m label)”, the “uptake of radioactivity at the site of the punctured artery (clot)” value [1] is reported as “intense uptake of radioactivity”, the “added radiolabel bound to resting platelets” value (resting platelets) is reported as 2.1±0.5% and the “quantity of free Tc-99m versus time of preparation” value [2] is reported as “had not increased”. The “added radiolabel bound to activated platelets” value (activated platelets) was 12.5±1.2%, the “gamma camera images, radioactivity in forming versus preformed clots” value (forming clots; FIGS. 4A and 4B, qualitative) was “more radioactivity in the forming clots than in the preformed clots” and the “radioactivity level measured in the forming clot” value (forming clots; agent added before thrombin, 15 minutes at 22° C.) was 27.6±0.2%. For the same substance, the “added radiolabel taken up by forming clots” value (forming clots; incubated for 2 hours at 22° C.) was 51±1.2%, the “quantity of free Tc-99m in urine versus the injected preparation” value [3] was “substantially the same” and the “radioactivity level measured in the preformed clots” value (pre-formed clots) was 6.4±3.2%.

In the case of “Gly (D)Ala Gly Gly Aba Tyr Cys(Acm) Ser Val Thr Cys(Acm) Gly (G[dA]GG[GABA]YC(Acm)SVTC(Acm)G) [SEQ ID NO: 7]”, the “lower cell adhesion as compared to fibronectin” value (MDA-231 cells) is reported as “approximately 17%” and the “proportion of cells demonstrating cell adhesion, test peptide versus hexapeptide (SEQ ID NO: 4)” value (MDA-231 cells) is reported as “No statistical difference”.

For “YCSVTCG (cysteine pairing not given here) [SEQ ID NO: 3]”, the “binding to CD36 transfected Jurkat cells” value [4] is listed as “binds strongly”.

For ANKHYF [SEQ ID NO: 5], the “effect on ADP-induced platelet aggregation” value (“effect” below) (platelets) is listed as “no biological activity”.

For “labeled cyclized peptide: cyclized peptide Cys Ser Val Thr Cys Gly (SEQ ID NO: 4) directly labeled with Tc-99m at sulfhydryl moieties (CSVTCG; also: cyclized, kind not given here, directly labeled with Tc-99m at sulfhydryl moieties)”, the “added radiolabel bound to activated platelets” value (activated platelets) was < 2%.

In the case of “cysteine protected form: derivative of SEQ ID NO: 4 in which the two cysteine residues are blocked by acetaminomethyl (Acm) (C(Acm)SVTC(Acm)G)”, the “effect” value (platelets) is listed as “inhibited ADP-induced platelet aggregation” and the “binding to four tumor cell lines relative to the native sequence” value (four tumor cell lines) is listed as “approximately to the same extent as the native sequence”.

In the case of “VCTGSC (cysteine pairing not given here) [SEQ ID NO: 6]”, the “effect” value (platelets) is listed as “no biological activity”.

In the case of “cyclic form: cyclic form of SEQ ID NO: 4 in which two cysteine residues are cyclized (CSVTCG; disulfide 1-5 (inferred))”, the “effect” value (platelets) is given as “inhibited ADP-induced platelet aggregation” and the “binding to four tumor cell lines relative to the native sequence” value (four tumor cell lines) is given as “approximately to the same extent as the native sequence”.
